Results: patent publication US20140336182A1, “Aurora Kinase Modulators and Method of Use” (Amgen Inc., priority 2013, published 2014)
Read-outs that look alike come from different tables or passages of the source.

System: HeLa cells
Experiment: HeLa cell 24 hr ploidy assay (DNA content)
Assay type: cell-based
Settings: Homo sapiens, HeLa, 4N ploidy, average, read-out: 24h_4NPloidy EC50_IP (uM Avg)
Summary of the method: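 HeLa cells (1×10^4/well, MEM+10% FBS) cultured 24 h, treated with serially diluted compounds (0.25% DMSO final), then fixed, permeabilized and stained with Hoechst 33342 (0.5 ug/ml). Imaging quantified % 4N and >4N cells; EC50 IP and EC50 transit derived from dose curves.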

`COCCOc1ccc(-c2nnc(Nc3ccc(Sc4ccnc5cc(OC)cnc45)cc3)c3ccccc23)cc1` [compound 474] was tested, and the EC50 (HeLa cells) was 0.024 µM.

With `COc1cnc2c(Oc3ccc(Nc4nnc(-c5ccc6[nH]ccc6c5)c5ccccc45)cc3)ccnc2c1` [compound 167] the EC50 (HeLa cells) was 0.027 µM.

`COc1ccc2c(Sc3ccc(Nc4nnc(-c5ccc(Cl)cn5)c5ccccc45)cc3)ccnc2c1` [compound 364] was tested, and the EC50 (HeLa cells) was 0.005 µM.

Molecule `COCCOCCOc1ccc2nccc(Sc3ccc(Nc4nnc(-c5ccc(Cl)cc5)c5ccccc45)cc3)c2n1` [compound 475] has an EC50 (HeLa cells) of 0.017 µM.

Work on `COc1cnc2c(Oc3ccc(Nc4nnc(-c5cc(C)no5)c5ccccc45)cc3)ccnc2c1` [compound 350] yielded an EC50 (HeLa cells) of 0.077 µM.

Molecule `COCCOc1cc2nccc(Oc3ccc(Nc4nnc(-c5ccccc5)c5ccccc45)cc3)c2cc1OC` [Example 393, N-(4-(6-Methoxy-7-(2-methoxyethoxy)quinolin-4-yloxy)phenyl)-4-phenylphthalazin-1-amine] has an EC50 (HeLa cells) of 0.001 µM.

With `COc1cnc2c(Oc3ccc(Nc4nnc(-c5ccc(C(N)=O)cc5)c5ccccc45)cc3)ccnc2c1` [compound 177] the EC50 (HeLa cells) was over 1.2 µM.

With `COc1cnc2c(Oc3ccc(Nc4nnc(-c5ccc(C)nc5)c5ccccc45)cc3)ccnc2c1` [compound 268] the EC50 (HeLa cells) was 0.066 µM.

`COc1ccc2c(Oc3ccc(Nc4nnc(-c5ccc(Cl)cc5)c5ccccc45)cc3)ccnc2c1` [compound 345] gave an EC50 (HeLa cells) of 0.013 µM.

`Clc1ccc(-c2nnc(Nc3ccc(Sc4ccnc5cc(Br)cnc45)cc3)c3ccccc23)cc1` [compound 324] gave an EC50 (HeLa cells) of 0.029 µM.

Work on `Cc1csc(-c2nnc(Nc3ccc(Sc4ccnc5ccoc45)cc3)c3ccccc23)c1` [compound 468] yielded an EC50 (HeLa cells) of 0.014 µM.

In the case of `COc1cnc2c(Oc3ccc(Nc4nnc(-c5ccccc5)cc4C)cc3)ccnc2c1` [compound 107], the EC50 is reported as 0.39 µM.

`Clc1ccc(-c2nnc(Nc3ccc(Sc4ccnc5c4CCCN5)cc3)c3ccccc23)cc1` [compound 570] showed an EC50 (HeLa cells) of 0.008 µM.

Molecule `COc1cnc2c(Oc3ccc(Nc4nnc(-c5cccc(CO)n5)c5ccccc45)cc3)ccnc2c1` [compound 114] has an EC50 of 0.39 µM.

With `Oc1cnc2c(Sc3ccc(Nc4nnc(-c5ccccc5)c5ccccc45)cc3)ccnc2c1` [compound 415] the EC50 (HeLa cells) was 0.015 µM.

`c1ccc(-c2nnc(Nc3ccc(Oc4ccnc5cc(-c6ccsc6)ccc45)cc3)c3ccccc23)cc1` [compound 339] was tested, and the EC50 (HeLa cells) was 0.027 µM.

With `Cc1csc(-c2nnc(Nc3ccc(Sc4ccnc5ccc(=O)[nH]c45)cc3)c3ccccc23)c1` [compound 589] the EC50 (HeLa cells) was 0.007 µM.

`COc1cnc2c(Sc3ccc(Nc4nnc(N5CCc6sccc6C5)c5ccccc45)cc3)ccnc2c1` [compound 578] was tested, and the EC50 (HeLa cells) was 0.007 µM.

`COc1ccc2nccc(Oc3ccc(Nc4nnc(-c5cc(C)cs5)c5ccccc45)cc3)c2c1` [compound 269] showed an EC50 (HeLa cells) of 0.016 µM.

For `COc1cnc2c(Oc3ccc(Nc4nnc(-c5ccc(C(C)(C)C)cc5)c5ccccc45)cc3)ccnc2c1` [Example 38, 4-(4-tert-butylphenyl)-N-(4-(7-methoxy-1,5-naphthyridin-4-yloxy)phenyl)phthalazin-1-amine], the EC50 was 0.08 µM.

In the case of `COc1cnc2c(Sc3ccc(Nc4nnc(N5CC[C@@H](OC)C5)c5ccccc45)cc3)ccnc2c1` [compound 540], the EC50 (HeLa cells) is reported as 0.013 µM.

In the case of `COc1cnc2c(Oc3ccc(Nc4nnc(-c5ccc(F)nc5)c5ccccc45)cc3)ccnc2c1` [compound 190, 4-(6-fluoro-3-pyridinyl)-N-(4-((7-(methyloxy)-1,5-naphthyridin-4-yl)oxy)phenyl)-1-phthalazinamine], the EC50 (HeLa cells) is reported as 0.129 µM.

`O=C(Nc1cc(Oc2ccc(Nc3nnc(-c4ccccc4)c4ccccc34)cc2F)ccn1)N1CCOCC1` [compound 179] was tested, and the EC50 (HeLa cells) was 0.226 µM.

With `COc1cnc2c(Oc3ccc(Nc4nnc(-c5ccc(C)c(C)c5)c5ccccc45)cc3)ccnc2c1` [compound 192] the EC50 (HeLa cells) was 0.005 µM.

Work on `c1ccc(-c2nnc(Nc3ccc(Oc4ncnc5[nH]ccc45)cc3)c3ccccc23)cc1` [compound 273] yielded an EC50 (HeLa cells) of over 1.2 µM.

`COCCOc1nnc(Nc2ccc(Sc3ccnc4cc(OC)cnc34)cc2)c2ccccc12` [compound 515] gave an EC50 (HeLa cells) of 0.018 µM.

For `Clc1cccc(-c2nnc(Nc3ccc(Sc4ccnc5ccsc45)cc3)c3ccccc23)c1` [compound 518], the EC50 (HeLa cells) was 0.016 µM.
